Article PMC8000592, “Discovery and Optimization of Selective Inhibitors of Meprin α (Part I)” (Pharmaceuticals, 2021)
Read-outs that look alike come from different tables or passages of the source.

Key:
meprin α = target: T1, meprin α (Homo sapiens, UniProt Q16819); experiment: Meprin α assay, fluorogenic substrate (Mca)-YVADAPK-(K-ε-Dnp), 384 and 1536 well plate formats; assay type: biochemical; conditions: for selectivity for meprin α: versus meprin β, in words
T1 sequence (Q16819 66-593 limits assumed): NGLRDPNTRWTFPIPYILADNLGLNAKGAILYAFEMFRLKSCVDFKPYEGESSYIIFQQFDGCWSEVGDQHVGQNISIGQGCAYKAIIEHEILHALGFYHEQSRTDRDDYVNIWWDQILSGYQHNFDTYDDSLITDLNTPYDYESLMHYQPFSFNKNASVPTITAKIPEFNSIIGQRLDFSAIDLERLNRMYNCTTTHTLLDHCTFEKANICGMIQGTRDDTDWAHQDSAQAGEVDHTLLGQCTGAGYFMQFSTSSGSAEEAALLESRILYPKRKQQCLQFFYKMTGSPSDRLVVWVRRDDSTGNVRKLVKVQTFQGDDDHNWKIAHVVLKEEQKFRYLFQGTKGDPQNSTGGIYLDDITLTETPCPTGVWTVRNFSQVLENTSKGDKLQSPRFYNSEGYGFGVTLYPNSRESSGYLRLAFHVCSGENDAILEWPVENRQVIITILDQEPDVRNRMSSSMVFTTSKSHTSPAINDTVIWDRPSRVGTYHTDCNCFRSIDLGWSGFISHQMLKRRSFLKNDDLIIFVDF
Excerpt: The meprin α and meprin β assays, which utilize the substrates (Mca)-YVADAPK-(K-ε-Dnp) and (Mca)-EDEDED-(K-ε-Dnp), respectively, have been described previously. To enable an ultra-high-throughput screening (uHTS) campaign, we proceeded to miniaturize both assays to 1536 well plate format (wpf). First, we recapitulated the assays in 1536 well plate using reagents at the same concentrations as in 384 well plate format assays by scaling the volume down by the factor of 2.5.
Both assays followed the same general protocol. A 5 µL measure of 2 × enzyme solution (2.6 and 0.1 nM for meprin α and meprin β, respectively) in assay buffer (50 mM Hepes, 0.01% Brij-35, pH 7.5) was added to solid bottom black 384 low volume plates (Nunc, cat# 264705). Next, 75 nL of test compounds or pharmacological control (actinonin or NFF449) were added to corresponding wells using a 384-pin tool device (V&P Scientific, San Diego, CA, USA). After 30 min incubation at RT, the reactions were started by addition of 5 µL of 2 × solutions of substrates (20 µM, mepin α substrate Mca-YVADAPK-K(Dnp) or meprin β substrate Mca-EDEDED-K(Dnp)). Reactions were incubated at RT for 1 h, after which the fluorescence was measured using the Synergy H4 multimode microplate reader (Biotek Instruments) (λexcitation = 324 nm, λemission = 390 nm).
Both assays followed the same general protocol. A 2 µL portion of 2 × enzyme solution (1.3 and 0.0125 nM for meprin α and meprin β, respectively) in assay buffer (50 mM Hepes, 0.01% Brij-35, pH 7.5) was added to solid bottom black 1536 low volume plates (Corning cat# 7261). Next, 30 nL of test compounds or pharmacological control (actinonin or NFF449) was added to corresponding wells using a 1536 pin tool device (V&P Scientific, San Diego). After 30 min incubation at RT, the reactions were started by addition of 2 µL of 2x solutions of substrates (20 µM, meprin α substrate Mca-YVADAPK-K(Dnp) or meprin β substrate Mca-EDEDED-K(Dnp)). Reactions were incubated at RT for 1 h, after which the fluorescence was measured using the Viewlux multimode microplate reader (Perkin Elmer) (λexcitation = 324 nm, λemission = 390 nm).
The miniaturized 1536-well plate format meprin α and meprin β assays were used to screen a collection of approximately 650,000 compounds (The Scripps Research library, La Jolla, CA, USA) on the automated Kalypsys/GNF platform at The Scripps Research Molecular Screening Center (SRMSC, Jupiter, FL, USA: http://hts.florida.scripps.edu/). Both uHTS campaigns were run separately but in a similar manner. Briefly, the first step was the primary screen of all test compounds as singlicates against the meprin α and meprin β target at a final concentration of 7.0 μM. Next, compounds selected as primary hits were cherry-picked and retested in triplicate against the primary screen target and its antitarget (meprin α for the meprin β screening effort, and vice versa) at a same final concentration of 7.0 μM. The additional counter screen assays against related metzincins (MMP-8, MMP-14, and ADAM10) were performed in triplicate at a final concentration of 7.0 μM. The final step was the titration of selected hits as 10-point, 1:3 serial dilutions in both the target and antitarget assay, starting at a final nominal concentration of 17 μM. […] Wells treated with DMSO only were used as negative controls and 0% inhibition reference. […] All data generated during this effort were uploaded to the SRMSC’s institutional screening database (Assay Explorer, Symyx). Sample to background (S/B) ratios, as well as Z and Z’ values, were calculated on a per plate basis as described 14. Curve fitting and resulting IC50 determinations were performed as previously reported.

ADAM17 = target: T2, ADAM17 (Homo sapiens, UniProt P78536); experiment: ADAM17 assay (Mca-KPLGL-Dpa-AR-NH2 substrate); assay type: biochemical; conditions: triplicate, 10-point, 3:1 serial dilution, highest concentration 17.4 µM
T2 construct: purchased R&D Systems 930-ADB
Procedure: We were able to procure 64 out of 87 selected compounds from commercial sources, which we tested in triplicate, 10-point, 3:1 serial dilution concentration response format starting at the highest concentration of 17.4 µM against both meprin α and meprin β. In addition to meprins, we also tested 64 hits against related metzincins (MMP-2, MMP-3, MMP-8, MMP-9, MMP-10, MMP-14, ADAM10, and ADAM17) to ascertain general nonpromiscuity against zinc-dependent proteases.
Both assays followed the same general protocol. A 2.5 µL portion of 2 × enzyme solution (20 nM) in assay buffer (10 mM HEPES, 0.001% Brij-35, pH 7.5) was added to solid bottom black 1536 plates (Greiner, cat# 789075). Next, test compounds and pharmacological controls were added to corresponding wells using a 1536 pin tool device (V&P Scientific, San Diego, CA, USA). After 30 min incubation at RT, the reactions were started by addition of 2.5 µL of 2x solutions of substrate (R&D Systems cat#: ES010, Mca-KPLGL-Dpa-AR-NH2, 20 µM). Reactions were incubated at RT for 2 h, after which the fluorescence was measured using a PerkinElmer Viewlux multimode microplate imager (λexcitation = 324 nm, λemission = 390 nm). Final concentration of test compounds in assays was 7.0 µM.

meprin β = conditions: cited from earlier work
MMP and ADAM = conditions: cited from earlier work
[1] = triplicate, 10-point, 3:1 serial dilution, highest concentration 17.4 µM, read-out: Meprin α IC50

T2 sequence (P78536 215-824): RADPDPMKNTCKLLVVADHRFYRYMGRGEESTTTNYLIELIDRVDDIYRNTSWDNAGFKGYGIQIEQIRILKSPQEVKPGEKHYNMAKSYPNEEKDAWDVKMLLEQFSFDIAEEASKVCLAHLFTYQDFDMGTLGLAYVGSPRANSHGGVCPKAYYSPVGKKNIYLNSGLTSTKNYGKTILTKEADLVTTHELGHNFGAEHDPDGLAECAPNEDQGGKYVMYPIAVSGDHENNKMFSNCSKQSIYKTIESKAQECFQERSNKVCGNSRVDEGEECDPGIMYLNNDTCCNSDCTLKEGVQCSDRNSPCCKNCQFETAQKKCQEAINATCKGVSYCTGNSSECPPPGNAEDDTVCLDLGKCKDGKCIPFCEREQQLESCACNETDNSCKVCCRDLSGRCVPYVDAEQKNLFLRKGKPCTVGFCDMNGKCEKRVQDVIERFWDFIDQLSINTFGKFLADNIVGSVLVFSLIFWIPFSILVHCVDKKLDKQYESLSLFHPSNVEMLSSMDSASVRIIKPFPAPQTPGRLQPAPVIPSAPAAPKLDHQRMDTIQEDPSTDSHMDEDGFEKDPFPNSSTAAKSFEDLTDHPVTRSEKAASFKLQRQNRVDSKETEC

| SMILES | IC50 (ADAM17) [µM] | IC50 (meprin α; [1]) [µM] | other results |
| --- | --- | --- | --- |
| COc1ccc(-n2c(CSc3ncccn3)nnc2SCC(=O)NO)cc1 [Compound 19855] | > 17 |  | selectivity for meprin α (meprin α): show selectivity for meprin α |
| O=[N+]([O-])c1ccc(CN2CCC3(CCc4ccccc43)CC2)o1 [SR207820] | > 17 | > 17 |  |
| COc1cc(OC)cc(C(=O)CNc2nnc(SCC(=O)NO)s2)c1 [Compound 19849] | 8.01 | 0.218 |  |
| O=C(CSc1nnc(NC(=O)COc2ccccc2)s1)NO [Compound 19848] | > 17 | 0.335 |  |
| O=C(CSc1nnc(NC(=O)c2ccccc2)s1)NO [Compound 19847] | > 17 | 0.892 |  |
| O=C(c1ccc(C(=O)O)c([N+](=O)[O-])c1)c1ccc(C(=O)O)c([N+](=O)[O-])c1 [SR355996] | > 17 | > 17 |  |
| O=C(Nc1cc(C(=O)Nc2ccc(S(=O)(=O)O)cc2S(=O)(=O)O)cc(C(=O)Nc2ccc(S(=O)(=O)O)cc2S(=O)(=O)O)c1)Nc1cc(C(=O)Nc2ccc(S(=O)(=O)O)cc2S(=O)(=O)O)cc(C(=O)Nc2ccc(S(=O)(=O)O)cc2S(=O)(=O)O)c1 [NFF449] |  |  | IC50 (meprin α; Meprin α 384 wpf, read-out: IC50): > 100 µM; IC50 (meprin α; Meprin α 1536 wpf, read-out: IC50): > 100 µM; Ki (meprin β): 0.022 µM; selectivity against adamalysins and matrixins (MMP and ADAM): good selectivity |
| O=C(COc1ccc(Cl)cc1Cl)NO [Compound 1596857] | > 17 |  | IC50 (meprin α): 1.18 µM |
| O=C(CCN(Cc1cccs1)S(=O)(=O)c1ccc([N+](=O)[O-])cc1)NO [Compound 162799] | > 17 | 0.564 | selectivity against meprin β and other tested metzincins (meprin α): > 30 fold; Meprin α IC50 (meprin α; triplicate, 10-point, 3:1 serial dilution, highest concentration 17.4 µM): sub-micromolar; selectivity for meprin α (meprin α): show selectivity for meprin α |
| CSc1nnc2c(n1)OC(c1ccc([N+](=O)[O-])o1)Nc1ccccc1-2 (stereo not drawn) [SR412882] | 17 | > 17 |  |
| O=C(CCN(Cc1ccccc1)S(=O)(=O)c1ccc(F)cc1)NO [Compound 162808] | > 17 | 0.446 | selectivity against meprin β and other tested metzincins (meprin α): > 30 fold; Selectivity Fold (meprin α; meprin α versus meprin β): 38 fold; selectivity for meprin α (meprin α): show selectivity for meprin α |
